Experimental data published in patent US12649723B2, “Carbonohydrazonoyl dicyanide compounds comprising 2 or more aryl or heteroaryl connected via linker and use thereof” (KOREA INSTITUTE OF SCIENCE AND TECHNOLOGY, priority 2020, dated 2026).

Tests used:
CYP3A4 = target: T1, CYP3A4 (Homo sapiens, UniProt P08684); assay: Inhibitory effect on CYP coenzyme activity, human liver microsomes; assay type: in vitro ADME; conditions: compound 10 μM; human liver microsomes 0.25 mg/mL; substrate midazolam; 15 minutes
T1 construct: human liver microsomes (0.25 mg/mL); from tissue; host or cells: human liver microsomes
T1 sequence (P08684 whole entry): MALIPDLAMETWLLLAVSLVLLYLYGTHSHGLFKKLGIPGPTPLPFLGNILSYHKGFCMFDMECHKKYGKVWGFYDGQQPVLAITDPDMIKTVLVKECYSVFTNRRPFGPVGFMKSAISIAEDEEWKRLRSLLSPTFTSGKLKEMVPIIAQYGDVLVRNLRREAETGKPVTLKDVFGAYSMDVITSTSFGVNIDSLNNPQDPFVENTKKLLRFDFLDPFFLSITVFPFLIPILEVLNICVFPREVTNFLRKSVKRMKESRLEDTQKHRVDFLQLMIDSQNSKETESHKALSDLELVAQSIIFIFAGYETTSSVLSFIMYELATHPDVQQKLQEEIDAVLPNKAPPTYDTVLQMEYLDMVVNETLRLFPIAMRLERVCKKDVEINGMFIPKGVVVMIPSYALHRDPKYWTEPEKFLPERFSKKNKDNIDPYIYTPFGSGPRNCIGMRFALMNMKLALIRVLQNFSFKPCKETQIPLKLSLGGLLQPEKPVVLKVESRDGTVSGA
Method: (§1) The inhibitory effects of the compounds prepared according to Examples 1 to 175 on CYP coenzyme activity were identified. Specifically, human liver microsomes (0.25 mg/mL), a 0.1 M phosphate buffer solution (pH 7.4), a substrate drug cocktail of five types of drug metabolism enzymes (50 μM phenacetin, 10 μM diclofenac, 100 μM S-mephenytoin, 5 μM dextromethorphan, and 2.5 μM midazolam), and the compound at a concentration of 0 μM or 10 μM were mixed and pre-cultured at 37° C. for 5 minutes, and then further cultured at 37° C. for 15 minutes together with an NADPH generation system solution added thereto. Thereafter, the reaction was terminated by adding an acetonitrile solution containing an internal standard material (terfenadine) and centrifuged for 5 minutes (14,000 rpm, 4° C.), and then a supernatant was injected into an LC-MS/MS system for simultaneous analysis of metabolites of the substrate drugs to thereby evaluate the inhibitory effects on drug metabolism.
(§2) Metabolites of each CYP coenzyme indicator drug generated through the reaction were analyzed using the Shimadzu Nexera XR system and TSQ Vantage (Thermo). In an HPLC column, Kinetex C18 (2.1 mm×100 mm, 2.6 μm, particle size; Phenomenex, USA) was used, and mobile phases were (A) distilled water containing 0.1% formic acid and (B) acetonitrile containing 0.1% formic acid, and a gradient program shown in Table 3 was applied thereto.
(§3) The generated metabolites were quantified using a multiple reaction monitoring (MRM) quantification mode, and Xcalibur (version 1.6.1) was used for data analysis. Inhibitory effects of the novel compound prepared according to the examples of the present invention on CYP coenzyme activity are shown in Table 4 below.

CYP2C19 = target: T2, CYP2C19 (Homo sapiens, UniProt P33261); assay: as above; assay type: in vitro ADME; conditions: compound 10 μM; human liver microsomes 0.25 mg/mL; substrate S-mephenytoin; 15 minutes
T2 construct: human liver microsomes (0.25 mg/mL); from tissue; host or cells: human liver microsomes
T2 sequence (P33261 whole entry): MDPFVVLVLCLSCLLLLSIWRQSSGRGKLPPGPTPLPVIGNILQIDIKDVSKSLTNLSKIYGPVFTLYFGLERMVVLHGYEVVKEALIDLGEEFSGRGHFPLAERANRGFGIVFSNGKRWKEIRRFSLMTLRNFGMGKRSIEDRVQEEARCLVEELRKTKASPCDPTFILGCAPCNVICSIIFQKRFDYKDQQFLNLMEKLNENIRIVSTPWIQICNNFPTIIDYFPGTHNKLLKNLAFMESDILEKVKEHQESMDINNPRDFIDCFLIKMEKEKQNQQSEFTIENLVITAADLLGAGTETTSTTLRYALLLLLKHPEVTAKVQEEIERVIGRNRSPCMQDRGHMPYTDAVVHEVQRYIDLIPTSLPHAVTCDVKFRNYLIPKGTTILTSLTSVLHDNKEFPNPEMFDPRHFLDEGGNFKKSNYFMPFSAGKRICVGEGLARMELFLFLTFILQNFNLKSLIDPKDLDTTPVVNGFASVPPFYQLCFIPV
Method: as §1, §2, §3

CYP2D6 = target: T3, CYP2D6 (Homo sapiens, UniProt P10635); assay: as above; assay type: in vitro ADME; conditions: compound 10 μM; human liver microsomes 0.25 mg/mL; substrate dextromethorphan; 15 minutes
T3 construct: human liver microsomes (0.25 mg/mL); from tissue; host or cells: human liver microsomes
T3 sequence (P10635 whole entry): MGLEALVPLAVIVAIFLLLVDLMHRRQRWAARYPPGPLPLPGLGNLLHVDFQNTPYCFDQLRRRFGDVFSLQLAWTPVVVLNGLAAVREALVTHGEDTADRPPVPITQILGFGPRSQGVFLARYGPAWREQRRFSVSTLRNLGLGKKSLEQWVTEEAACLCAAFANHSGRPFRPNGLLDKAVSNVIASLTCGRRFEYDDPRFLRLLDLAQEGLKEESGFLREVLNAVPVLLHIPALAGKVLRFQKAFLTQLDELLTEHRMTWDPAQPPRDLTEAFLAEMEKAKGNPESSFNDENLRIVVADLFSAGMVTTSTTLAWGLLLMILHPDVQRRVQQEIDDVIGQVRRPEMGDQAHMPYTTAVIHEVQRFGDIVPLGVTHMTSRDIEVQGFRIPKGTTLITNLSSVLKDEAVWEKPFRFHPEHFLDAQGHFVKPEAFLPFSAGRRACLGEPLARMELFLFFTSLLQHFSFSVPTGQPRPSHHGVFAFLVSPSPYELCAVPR
Method: as §1, §2, §3

CYP1A2 = target: T4, CYP1A2 (Homo sapiens, UniProt P05177); assay: as above; assay type: in vitro ADME; conditions: compound 10 μM; human liver microsomes 0.25 mg/mL; substrate phenacetin; 15 minutes
T4 construct: human liver microsomes (0.25 mg/mL); from tissue; host or cells: human liver microsomes
T4 sequence (P05177 1-516): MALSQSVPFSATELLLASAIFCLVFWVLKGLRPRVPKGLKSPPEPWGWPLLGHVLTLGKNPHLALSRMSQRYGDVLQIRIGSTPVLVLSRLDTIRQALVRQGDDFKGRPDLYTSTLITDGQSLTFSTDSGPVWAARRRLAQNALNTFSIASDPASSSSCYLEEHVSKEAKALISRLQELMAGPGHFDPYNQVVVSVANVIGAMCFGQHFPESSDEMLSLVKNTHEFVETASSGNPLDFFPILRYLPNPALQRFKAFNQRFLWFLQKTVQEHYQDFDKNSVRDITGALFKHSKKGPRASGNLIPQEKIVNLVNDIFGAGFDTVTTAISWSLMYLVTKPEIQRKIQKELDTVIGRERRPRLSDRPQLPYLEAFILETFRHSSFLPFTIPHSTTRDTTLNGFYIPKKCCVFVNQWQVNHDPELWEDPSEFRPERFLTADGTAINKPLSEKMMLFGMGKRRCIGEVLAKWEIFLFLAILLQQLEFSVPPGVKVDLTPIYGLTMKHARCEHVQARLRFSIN
Method: as §1, §2, §3

CYP2C9 = target: T5, CYP2C9 (Homo sapiens, UniProt P11712); assay: as above; assay type: in vitro ADME; conditions: compound 10 μM; human liver microsomes 0.25 mg/mL; substrate diclofenac; 15 minutes
T5 construct: human liver microsomes (0.25 mg/mL); from tissue; host or cells: human liver microsomes
T5 sequence (P11712 whole entry): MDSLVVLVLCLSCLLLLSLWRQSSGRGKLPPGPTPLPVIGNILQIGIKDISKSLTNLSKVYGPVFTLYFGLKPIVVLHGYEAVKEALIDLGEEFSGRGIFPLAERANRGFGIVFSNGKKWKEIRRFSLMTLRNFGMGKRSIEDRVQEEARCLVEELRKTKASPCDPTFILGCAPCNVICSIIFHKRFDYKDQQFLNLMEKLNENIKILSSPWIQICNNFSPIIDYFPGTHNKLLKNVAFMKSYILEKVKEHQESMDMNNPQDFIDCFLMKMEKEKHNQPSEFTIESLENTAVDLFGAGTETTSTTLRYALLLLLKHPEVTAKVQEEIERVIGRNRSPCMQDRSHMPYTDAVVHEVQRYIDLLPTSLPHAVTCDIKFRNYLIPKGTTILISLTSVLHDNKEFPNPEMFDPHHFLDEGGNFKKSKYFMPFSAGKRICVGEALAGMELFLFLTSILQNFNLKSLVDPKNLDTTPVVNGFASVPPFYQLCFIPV
Method: as §1, §2, §3

[1] = Liver microsome stability; assay type: in vitro ADME, human; conditions: amount of substrate remaining; compound 1 μM, 30 minutes, 37° C., NADPH
Method: (§4) The stability of liver microsomes due to the compounds prepared according to Examples 1 to 175 was confirmed. Specifically, four types of liver microsomes (human, dog, rat, and mouse, each 0.25 mg/mL), a 0.1 M phosphate buffer solution (pH 7.4), and each of the compounds at a concentration of 1 μM were mixed and pre-cultured at 37° C. for 5 minutes and further cultured at 37° C. for 30 minutes together with an NADPH generation system solution added thereto. Thereafter, the reaction was terminated by adding an acetonitrile solution containing an internal standard material (chloropropamide) and centrifuged for 5 minutes (14,000 rpm, 4° C.), and then a supernatant was injected into an LC-MS/MS system for analysis of substrate drugs to thereby evaluate metabolic stability due to 8 types of compounds.
(§5) The amount of the substrate remaining after the reaction was analyzed using the Shimadzu Nexera XR system and TSQ Vantage (Thermo). In an HPLC column, Kinetex XB-C18 (2.1 mm×100 mm, particle size of 2.6 μm; Phenomenex, USA) was used, and mobile phases were (A) distilled water containing 0.1% formic acid and (B) acetonitrile containing 0.1% formic acid. Analyst software (version 1.6.3) and Xcalibur (version 1.6.1) were used for data analysis.

[2] = Liver microsome stability; assay type: in vitro ADME, rat; conditions: amount of substrate remaining; compound 1 μM, 30 minutes, 37° C., NADPH
Method: as §4, §5

Tau-BiFC cells = assay: Cell viability (cytotoxicity) in tau-BiFC cells, count of stained nuclei; assay type: cell-based; conditions: Forskolin-only group = 100% cell viability; for Cell viability (% @10 μM): compound 10 μM; for Cell viability: compounds marked *: measured at 3 μM
Procedure, shortened: (§6)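 Tau-BiFC cells were exposed for 48 h to compound (1, 3, 10 μM for screening; 0.03–30 μM for dose-response) plus 30 μM Forskolin to induce aggregation. BiFC fluorescence was normalised to Forskolin-only minus untreated controls, with IC50 from nonlinear regression. Viability was Hoechst-stained nuclei counts relative to Forskolin-only wells.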

[3] = Liver microsome stability; assay type: in vitro ADME, mouse; conditions: amount of substrate remaining; compound 1 μM, 30 minutes, 37° C., NADPH
Method: as §4, §5

tau protein = target: T6, tau protein (Homo sapiens, UniProt P10636); assay: Tau-BiFC cell model: inhibition of tau protein aggregation; assay type: cell-based; conditions: for remaining activity at 10 µM / remaining activity at 3 µM: 48 h, Forskolin-only group = 100% tau protein-aggregated state; for remaining activity at 10 µM: compound 10 μM, BiFC fluorescence, read-out: Response (% @10 μM); for IC50: Tau BiFC in cells, with Forskolin 30 μM, 48 hours; for remaining activity at 3 µM: compounds marked *: measured at 3 μM, read-out: Response
T6 construct: fused on or other part: Split fluorescent-protein halves for BiFC are fused to tau; In the published tau-BiFC line these are Venus VN173 and VC155
T6 sequence (P10636 2-441 isoform P10636-8 limits assumed): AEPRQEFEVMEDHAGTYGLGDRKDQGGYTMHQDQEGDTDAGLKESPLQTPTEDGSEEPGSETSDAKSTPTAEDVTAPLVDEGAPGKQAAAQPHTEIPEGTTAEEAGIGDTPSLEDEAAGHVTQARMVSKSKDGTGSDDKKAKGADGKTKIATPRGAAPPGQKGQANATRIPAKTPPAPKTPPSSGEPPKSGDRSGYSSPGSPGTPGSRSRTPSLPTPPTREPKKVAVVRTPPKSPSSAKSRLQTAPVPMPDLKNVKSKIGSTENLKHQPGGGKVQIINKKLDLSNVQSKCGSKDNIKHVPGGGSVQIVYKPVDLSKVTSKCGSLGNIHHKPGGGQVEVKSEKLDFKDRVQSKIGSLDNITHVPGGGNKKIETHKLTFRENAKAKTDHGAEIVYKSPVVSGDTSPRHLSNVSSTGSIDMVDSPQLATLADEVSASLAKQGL
Procedure, shortened: as §6

Row | SMILES | CYP3A4 (CYP3A4) | CYP2C19 (CYP2C19) | CYP2D6 (CYP2D6) | CYP1A2 (CYP1A2) | CYP2C9 (CYP2C9) | Human (%) [1] | Rat (%) [2] | Cell viability (% @10 μM) (Tau-BiFC cells) | Mouse (%) [3] | remaining activity at 10 µM (tau protein) | IC50 (tau protein) | Cell viability (Tau-BiFC cells) | remaining activity at 3 µM (tau protein)
1 | COc1cc(NN=C(C#N)C#N)ccc1C(=O)Nc1cnc(C)cn1 [Compound 104, (3-methoxy-4-(5-methylpyrazin-2-ylcarbamoyl)phenyl)carbonohydrazonoyl dicyanide] | 66.1 | 82.4 | >100 | 78.4 | 48.6 | 84.1% | 87.5% | 142% | 97.2% | 0% | 260 nM | – | –
2 | N#CC(C#N)=NNc1ccc(NC(=O)c2ccoc2)nc1 [Compound 110, (6-(furan-3-carboxamido)pyridin-3-yl)carbonohydrazonoyl dicyanide] | 98.9 | 88.4 | 91.3 | 88.3 | 77.1 | 89.7% | 81.8% | 160.5% | 92.4% | 0% | 790 nM | – | –
3 | N#CC(C#N)=NNc1ccc(OCc2cccnc2)cc1 [Compound 124, (4-(pyridin-3-ylmethoxy)phenyl)carbonohydrazonoyl dicyanide] | 37.5 | 69.9 | 46.6 | 23.4 | 4.4 | – | – | 140.9% | – | 0% | 620 nM | – | –
4 | COc1cc(NN=C(C#N)C#N)ccc1OCc1cccnc1 [Compound 160, (3-methoxy-4-(pyridin-3-ylmethoxy)phenyl)carbonohydrazonoyl dicyanide] | 17.9 | 68.5 | 59.7 | 5.8 | 6.5 | – | – | – | – | – | 7 nM | 111% | -33%
5 | COc1cc(NN=C(C#N)C#N)ccc1OCc1ccc(C)cc1 [Compound 154, (3-methoxy-4-(4-methylbenzyloxy)phenyl)carbonohydrazonoyl dicyanide] | 72.5 | 76.3 | 81.7 | 79.1 | 26.6 | – | – | – | – | – | 32 nM | 106% | -52%
6 | CC(Oc1ccc(NN=C(C#N)C#N)cc1)c1cccnc1 (centres unmarked) [Compound 140, (4-(1-(pyridin-3-yl)ethoxy)phenyl)carbonohydrazonoyl Dicyanide] | 30.8 | >100 | 69.6 | 96.7 | 11.7 | – | – | – | – | – | – | 135% | 18%
7 | Cc1cc(NN=C(C#N)C#N)ccc1OCc1cc[nH]n1 [Compound 151, (4-((1H-pyrazol-3-yl)methoxy)-3-methylphenyl)carbonohydrazonoyl dicyanide] | 88 | >100 | 94.8 | 51.8 | 19.4 | – | – | – | – | – | 22 nM | 126% | -32%
8 | N#CC(C#N)=NNc1ccc(OCc2cn[nH]c2)cc1 [Compound 137, (4-((1H-pyrazol-4-yl)methoxy)phenyl)carbonohydrazonoyl dicyanide] | 84.8 | >100 | >100 | >100 | 37 | – | – | – | – | – | – | 129% | 31%
9 | COc1cc(NN=C(C#N)C#N)ccc1OCc1ccccc1 [Compound 153, (4-(benzyloxy)-3-methoxyphenyl)carbonohydrazonoyl dicyanide] | 98.9 | 100 | 90.7 | 67.9 | 44.1 | – | – | – | – | – | 37 nM | 122% | -43%
10 | COc1cc(NN=C(C#N)C#N)ccc1OCc1cnc(C)cn1 [Compound 162, (3-methoxy-4-((5-methylpyrazin-2-yl)methoxy)phenyl)carbonohydrazonoyl dicyanide] | 73.3 | 75.9 | 70.3 | 79.8 | 73.5 | – | – | – | – | – | 49 nM | 115% | -25%
11 | Cc1ccc(C(=O)Nc2ccc(NN=C(C#N)C#N)cn2)cc1 [Compound 23, (6-(4-methylbenzamido)pyridin-3-yl)carbonohydrazonoyl dicyanide] | 83.3 | 82.5 | >100 | 85 | 40.6 | – | – | 114.2% | – | 0% | 130 nM | – | –
12 | Cc1cnc(COc2ccc(NN=C(C#N)C#N)cc2)cn1 [Compound 138, (4-((5-methylpyrazin-2-yl)methoxy)phenyl)carbonohydrazonoyl dicyanide] | 89.4 | >100 | 92.7 | 97.4 | 92.5 | – | – | – | – | – | – | 133% | 15%
13 | N#CC(C#N)=NNc1ccc(OCc2ncccn2)cc1 [Compound 136, (4-(pyrimidin-2-ylmethoxy)phenyl)carbonohydrazonoyl dicyanide] | 88.9 | 76.5 | 94.4 | 80.3 | 70 | – | – | 95.7% | – | 0% | 1440 nM | – | –
